From patent US9725449B2, “Tricyclic compounds as anticancer agents” (BRISTOL-MYERS SQUIBB COMPANY, priority 2015, dated 2017)

Target: BRD4 (Homo sapiens, UniProt O60885)
Assay: Time resolved fluorescence resonance energy transfer (TR-FRET) binding assay, bromodomain BRD4
Conditions: one of the FRET assays described; read-out: FRET BRD4 IC50

Structure (SMILES)	IC50 [µM]
[2H]C([2H])([2H])c1nnn(C)c1-c1cnc2c3c(OC)nc(C(C)=O)cc3n([C@@H](c3ncccc3F)C3CCOCC3)c2c1 [Example 310, 1-{8-[(R)-(3-Fluoropyridin-2-yl)(oxan-4-yl)methyl]-13-methoxy-5-[4-(^2H3)methyl-1-methyl-1H-1,2,3-triazol-5-yl]-3,8,12-triazatricyclo[7.4.0.0^2,^7]trideca-1(9),2(7),3,5,10,12-hexaen-11-yl}ethan-1-one]	< 0.01
[2H]C([2H])([2H])c1nnn(C)c1-c1cnc2c3c(NCC(F)(F)F)ncc(S(C)(=O)=O)c3n([C@H](c3ncccc3F)C3CCOCC3)c2c1 [Example 341, 8-[(S)-(3-Fluoropyridin-2-yl)(oxan-4-yl)methyl]-10-methanesulfonyl-5-[4-(^2H3)methyl-1-methyl-1H-1,2,3-triazol-5-yl]-N-(2,2,2-trifluoroethyl)-3,8,12-triazatricyclo[7.4.0.0^2,^7]trideca-1(13),2(7),3,5,9,11-hexaen-13-amine]	< 0.001
[2H]C([2H])([2H])c1nnn(C)c1-c1cnc2c3c(NCC(F)F)ncc(S(C)(=O)=O)c3n([C@H](c3ccccc3)C3CCOCC3)c2c1 [Example 117, N-(2,2-Difluoroethyl)-10-methanesulfonyl-5-[4-(^2H3)methyl-1-methyl-1H-1,2,3-triazol-5-yl]-8-[(S)-oxan-4-yl(phenyl)methyl]-3,8,12-triazatricyclo[7.4.0.0^2,^7]trideca-1(13),2(7),3,5,9,11-hexaen-13-amine]	< 0.01
[2H]C([2H])([2H])c1nnn(C)c1-c1cnc2c3cnc(C(C)(C)O)cc3n([C@H](c3ccc(F)cc3)C3CCOCC3)c2c1 [Example 159, 2-{8-[(S)-(4-Fluorophenyl)(oxan-4-yl)methyl]-5-[4-(^2H3)methyl-1-methyl-1H-1,2,3-triazol-5-yl]-3,8,12-triazatricyclo[7.4.0.0^2,^7]trideca-1(13),2(7),3,5,9,11-hexaen-11-yl}propan-2-ol]	< 1.5
Cc1nnn(C)c1-c1cnc2c3ccc(S(=O)(=O)N4CCOCC4)nc3n([C@H](c3ccccc3)C3CCOCC3)c2c1 [Example 197, 5-(Dimethyl-1H-1,2,3-triazol-5-yl)-11-(morpholine-4-sulfonyl)-8-[(S)-oxan-4-yl(phenyl)methyl]-3,8,10-triazatricyclo[7.4.0.0^2,^7]trideca-1(9),2(7),3,5,10,12-hexaene]	< 0.01
[2H]C([2H])([2H])c1nnn(C)c1-c1cnc2c3c(NCC(F)(F)F)nccc3n([C@H](c3ccccc3)C3CCOCC3)c2c1 [Example 134, 5-[4-(^2H3)Methyl-1-methyl-1H-1,2,3-triazol-5-yl]-8-[(S)-oxan-4-yl(phenyl)methyl]-N-(2,2,2-trifluoroethyl)-3,8,12-triazatricyclo[7.4.0.0^2,^7]trideca-1(13),2(7),3,5,9,11-hexaen-13-amine]	< 0.001
Cc1nnn(C)c1-c1ccc2c3ncc(N4CCS(=O)(=O)CC4)cc3n([C@H](c3ccccc3)C3CCOCC3)c2n1 [Example 381, 4-[11-(Dimethyl-1H-1,2,3-triazol-5-yl)-8-[(S)-oxan-4-yl(phenyl)methyl]-3,8,10-triazatricyclo[7.4.0.0^2,^7]trideca-1(9),2(7),3,5,10,12-hexaen-5-yl]-1λ^6,4-thiomorpholine-1,1-dione]	< 0.01
Cc1noc(C)c1-c1cnc2c3ccc(N4CCS(=O)(=O)CC4)nc3n([C@H](c3ccccc3)C3CCOCC3)c2c1 [Example 209, 4-[5-(Dimethyl-1,2-oxazol-4-yl)-8-[(S)-oxan-4-yl(phenyl)methyl]-3,8,10-triazatricyclo[7.4.0.0^2,^7]trideca-1(9),2(7),3,5,10,12-hexaen-11-yl]-1λ^6,4-thiomorpholine-1,1-dione]	< 0.01
Cc1nnn(C)c1-c1cnc2c3ccnc(N4CCOCC4)c3n([C@H](c3ccccc3)C3CCOCC3)c2c1 [Example 7, 5-(Dimethyl-1H-1,2,3-triazol-5-yl)-10-(morpholin-4-yl)-8-[(S)-oxan-4-yl(phenyl)methyl]-3,8,11-triazatricyclo[7.4.0.0^2,^7]trideca-1(13),2(7),3,5,9,11-hexaene]	< 0.01
COc1ncc(S(C)(=O)=O)c2c1c1ncc(-c3c(C)noc3C)cc1n2[C@H](c1ccccc1F)C1CCOCC1 [Example 48, 5-(Dimethyl-1,2-oxazol-4-yl)-8-[(S)-(2-fluorophenyl)(oxan-4-yl)methyl]-10-methanesulfonyl-13-methoxy-3,8,12-triazatricyclo[7.4.0.0^2,^7]trideca-1(13),2(7),3,5,9,11-hexaene]	< 0.001
[2H]C([2H])([2H])c1nnn(C)c1-c1cnc2c3c(OC)cncc3n([C@H](c3ccccc3)C3CCOCC3)c2c1 [Example 300, 13-Methoxy-5-[4-(^2H3)methyl-1-methyl-1H-1,2,3-triazol-5-yl]-8-[(S)-oxan-4-yl(phenyl)methyl]-3,8,11-triazatricyclo[7.4.0.0^2,^7]trideca-1(9),2(7),3,5,10,12-hexaene]	< 0.001
CCCC(c1ccccc1)n1c2cc(-c3c(C)nnn3C)ncc2c2ncc(C(C)(C)O)cc21 (stereo not drawn) [Example 372]	< 1.5
[2H]C([2H])([2H])c1nnn(C)c1-c1cnc2c3ccc(C(C)(O)C4CC4)nc3n([C@H](c3ccccc3F)C3CCOCC3)c2c1 (stereo partly drawn) [Example 242, 1-Cyclopropyl-1-{8-[(S)-(2-fluorophenyl)(oxan-4-yl)methyl]-5-[4-(^2H3)methyl-1-methyl-1H-1,2,3-triazol-5-yl]-3,8,10-triazatricyclo[7.4.0.0^2,^7]trideca-1(13),2(7),3,5,9,11-hexaen-11-yl}ethan-1-ol]	< 0.01
Cc1nnn(C)c1-c1cnc2c3cnc(Cl)cc3n([C@H](c3ccc(F)cc3)C3CCOCC3)c2c1 [Example 322]	< 0.01
COc1nnn(C)c1-c1cnc2c3cnc(N4C[C@@H](C)S(=O)(=O)[C@H](C)C4)nc3n([C@H](c3ccccc3)C3CCOCC3)c2c1 [Example 158, (2R,6R)-4-[5-(4-Methoxy-1-methyl-1H-1,2,3-triazol-5-yl)-8-[(S)-oxan-4-yl(phenyl)methyl]-3,8,10,12-tetraazatricyclo[7.4.0.0^2,^7]trideca-1(9),2(7),3,5,10,12-hexaen-11-yl]-2,6-dimethyl-1λ^6,4-thiomorpholine-1,1-dione]	< 0.01
[2H]C([2H])([2H])c1nnn(C)c1-c1cnc2c3ccc(C(C)(C)O)nc3n([C@H](c3ccccc3F)C3CCOCC3)c2c1 [Example 241, 2-{8-[(S)-(2-Fluorophenyl)(oxan-4-yl)methyl]-5-[4-(^2H3)methyl-1-methyl-1H-1,2,3-triazol-5-yl]-3,8,10-triazatricyclo[7.4.0.0^2,^7]trideca-1(13),2(7),3,5,9,11-hexaen-11-yl}propan-2-ol]	< 0.01
[2H]C([2H])([2H])c1nnn(C)c1-c1cnc2c3ccc(C(C)(O)C4CC4)nc3n([C@H](c3ccccc3F)C3CCOCC3)c2c1 (stereo partly drawn) [Example 243, 1-Cyclopropyl-1-{8-[(S)-(2-fluorophenyl)(oxan-4-yl)methyl]-5-[4-(^2H3)methyl-1-methyl-1H-1,2,3-triazol-5-yl]-3,8,10-triazatricyclo[7.4.0.0^2,^7]trideca-1(13),2(7),3,5,9,11-hexaen-11-yl}ethan-1-ol]	< 0.01
Cc1nnn(C)c1-c1cnc2c3c(S(C)(=O)=O)ncc(Cl)c3n([C@H](c3ccccc3)C3CCOCC3)c2c1 [Example 42, 10-Chloro-5-(dimethyl-1H-1,2,3-triazol-5-yl)-13-methanesulfonyl-8-[(S)-oxan-4-yl(phenyl)methyl]-3,8,12-triazatricyclo[7.4.0.0^2,^7]trideca-1(13),2(7),3,5,9,11-hexaene]	< 0.01
